Test results from the supplement of paper PMC10307832.

Columns and labels:
Experiment in all cases: relative viability (nuclei count vs DMSO), 5 days (fraction); higher = more cells survive
Doramapimod + Luminespib = compound: Cc1ccc(-n2nc(C(C)(C)C)cc2NC(=O)Nc2ccc(OCCN3CCOCC3)c3ccccc23)cc1 [Doramapimod] + CCNC(=O)c1noc(-c2cc(C(C)C)c(O)cc2O)c1-c1ccc(CN2CCOCC2)cc1 [Luminespib] (partner 0.01 µM)
Outline: (§1)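 A single step with final 0.05% Triton X-100, 1% formaldehyde and 1 ug/ml Hoechst fixed the cells and stained nuclei 5 days after treatment. Lung cancer cell lines in 1536-well plates had been treated by pin tool the day after seeding with one drug alone or a fixed anchor-drug dose plus five library-drug doses (not always all listed) in √10 steps, and nuclei were counted on 4× images. Relative viability is the ratio of nuclei in treated wells to nuclei in vehicle wells, taken as the median of duplicate plates.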

RAF265 + Phenformin = compound: Cn1c(Nc2ccc(C(F)(F)F)cc2)nc2cc(Oc3ccnc(-c4ncc(C(F)(F)F)[nH]4)c3)ccc21 [RAF265] + N=C(N)NC(=N)NCCc1ccccc1 [Phenformin] (partner 250 µM)
Outline: as §1

RAF265 + Crizotinib = compound: Cn1c(Nc2ccc(C(F)(F)F)cc2)nc2cc(Oc3ccnc(-c4ncc(C(F)(F)F)[nH]4)c3)ccc21 [RAF265] + C[C@@H](Oc1cc(-c2cnn(C3CCNCC3)c2)cnc1N)c1c(Cl)ccc(F)c1Cl [Crizotinib] (partner 1 µM)
Outline: as §1

RAF265 + Luminespib = compound: Cn1c(Nc2ccc(C(F)(F)F)cc2)nc2cc(Oc3ccnc(-c4ncc(C(F)(F)F)[nH]4)c3)ccc21 [RAF265] + CCNC(=O)c1noc(-c2cc(C(C)C)c(O)cc2O)c1-c1ccc(CN2CCOCC2)cc1 [Luminespib] (partner 0.01 µM)
Outline: as §1

Cell Line	relative viability (Doramapimod + Luminespib; first compound 0.02 µM)	relative viability (Doramapimod + Luminespib; first compound 0.06325 µM)	relative viability (Doramapimod + Luminespib; first compound 0.2 µM)	relative viability (Doramapimod + Luminespib; first compound 0.6325 µM)	relative viability (Doramapimod + Luminespib; first compound 2 µM)	relative viability (RAF265 + Phenformin; first compound 0.01 µM)	relative viability (RAF265 + Phenformin; first compound 0.03162 µM)	relative viability (RAF265 + Phenformin; first compound 0.1 µM)	relative viability (RAF265 + Phenformin; first compound 0.3162 µM)	relative viability (RAF265 + Phenformin; first compound 1 µM)	relative viability (RAF265 + Crizotinib; first compound 0.01 µM)	relative viability (RAF265 + Crizotinib; first compound 0.03162 µM)	relative viability (RAF265 + Crizotinib; first compound 0.1 µM)	relative viability (RAF265 + Crizotinib; first compound 0.3162 µM)	relative viability (RAF265 + Crizotinib; first compound 1 µM)	relative viability (RAF265 + Luminespib; first compound 0.01 µM)	relative viability (RAF265 + Luminespib; first compound 0.03162 µM)	relative viability (RAF265 + Luminespib; first compound 0.1 µM)	relative viability (RAF265 + Luminespib; first compound 0.3162 µM)	relative viability (RAF265 + Luminespib; first compound 1 µM)
BEN	0.537	0.56	0.351	0.13	0.352	0.276	0.267	0.274	0.263	0.239	0.955	0.911	0.961	1.07	0.821	0.402	0.491	0.534	0.224	0.325
NCI-H3122	0.11	0.0996	0.108	0.0726	0.092	0.386	0.385	0.386		0.348	0.305	0.287	0.305	0.251	0.283	0.0828	0.0692	0.0932	0.0953	0.0538
SK-MES-1	0.725	0.563	0.694	0.836	0.601	0.62	0.404	0.341	0.263	0.2	1	0.88	0.919	0.334	0.242	0.726	0.414	0.33	0.228	0.191
HOP-62	0.957	1.04	1.07	0.931	0.797	0.676	0.505	0.638	0.557	0.576	0.972		0.714	0.772	0.629	0.988	0.879	0.93	0.774	0.688
NCI-H2347	0.0162		0.601	0.5	0.492	0.338	0.426	0.394	0.218	0.166	0.699	0.664	0.504	0.551	0.287	0.445	0.775	0.849	0.337	0.234
NCI-H1563	0.449	0.548	0.535	0.48	0.481	0.676	0.674	0.66	0.64	0.623	0.88	0.916	0.849	0.801	0.824	0.56	0.511	0.589	0.529	0.485
LXF-289	0.644	0.757	0.607	0.732	0.616	0.52	0.526	0.476	0.372	0.338	0.849	0.81	0.872	0.677	0.684	0.736	0.6	0.699	0.534	0.357
LU99A	0.26	0.239	0.239	0.199	0.24	0.817	0.821	0.679	0.571	0.375	0.576	0.467	0.521	0.344	0.255	0.262	0.194	0.229	0.182	0.202
PC-14	0.146	0.196	0.18	0.159	0.152	0.578	0.599	0.864		0.539	0.872	0.818	0.995		0.68	0.163	0.128	0.248		0.139
NCI-H2085	0.411	0.601	0.409	0.46	0.463	0.858	0.683	0.742	0.642	0.644	0.696	0.886	0.858	1.05	0.806	0.493	0.403	0.492	0.428	0.427
NCI-H2170	0.649	0.754	0.64	0.825	0.638	0.408	0.38	0.453	0.319	0.366	1.22	1.08	1.09	0.784	0.771	0.791	0.658	0.688	0.254	0.381
NCI-H2126	0.832	0.906	0.964	1.03	0.702	0.508	0.551	0.558	0.512	0.459	1.02	1.04	1.03	0.96	0.754	0.918	0.87	0.908	0.628	0.654
H3255	0.947	0.844	0.843	0.686	0.697	0.358	0.378	0.372		0.349	0.928	0.83	1.12		0.671	0.767	0.876	0.953		0.634
HCC-15	0.472	0.425	0.444		0.201	0.486	0.483	0.464	0.355	0.316	0.83	0.817	0.836	0.566	0.499	0.27	0.229	0.388	0.159	0.173
NCI-H661	0.99	0.917	0.986	0.914	0.909	0.258	0.27	0.275	0.281	0.261	0.931	0.747	1.04	0.906	0.716	0.973	0.694	0.658	0.486	0.412
NCI-H2009	1.05	1.17	1.12	1.23	1.04	0.479	0.416	0.407	0.468	0.38	1.07	0.91	0.96	0.805	0.629	1.05	0.95	0.975	1.03	0.883
